Assay results reported in US7384911B2, “Peptides having antimicrobial properties and compositions containing them, notably for the preservation of foodstuffs” (priority 2002, dated 2008).
Read-outs that look alike come from different tables or passages of the source. Residues, ends and D or L forms follow the SMILES beside them.

Experiments:
B. megaterium = assay: Bactericidal or bacteriostatic effect, spreading on Petri dishes and counting colonies; format: cell-based; conditions: colonies counted after 24 h of incubation, Yes/No
Experimental: (§1) The bactericidal or bacteriostatic effect of the peptide was determined by spreading on Petri dishes and counting the colonies present after 24 h of incubation.

Bacillus subtilis = assay: as above; format: cell-based; conditions: colonies counted after 24 h of incubation, Yes/No
Experimental: as §1

Escherichia coli SBS 363 = assay: as above; format: cell-based; conditions: colonies counted after 24 h of incubation, Yes/No
Experimental: as §1

Klebsiella pneumoniae = assay: as above; format: cell-based; conditions: colonies counted after 24 h of incubation, Yes/No
Experimental: as §1

Micrococcus luteus = assay: as above; format: cell-based; conditions: colonies counted after 24 h of incubation, Yes/No
Experimental: as §1

Nocardia asteroides = assay: as above; format: cell-based; conditions: colonies counted after 24 h of incubation, Yes/No
Experimental: as §1

[1] = test system: Pseudomonas aeruginosa ATCC 82118; assay: as above; format: cell-based; conditions: colonies counted after 24 h of incubation, Yes/No
Experimental: as §1

S. haemolyticus = assay: as above; format: cell-based; conditions: colonies counted after 24 h of incubation, Yes/No
Experimental: as §1

Salmonella typhimurium = assay: as above; format: cell-based; conditions: colonies counted after 24 h of incubation, Yes/No
Experimental: as §1

Staphylococcus aureus = assay: as above; format: cell-based; conditions: colonies counted after 24 h of incubation, Yes/No
Experimental: as §1

[2] = test system: V. anguillarum ATCC 19264; assay: as above; format: cell-based; conditions: colonies counted after 24 h of incubation, Yes/No
Experimental: as §1

[3] = test system: Vibrio metshnikovii NCTC 8483; assay: as above; format: cell-based; conditions: colonies counted after 24 h of incubation, Yes/No
Experimental: as §1

B. cereus ATCC 11778 = assay: as above; format: cell-based, Bacillus cereus; conditions: colonies counted after 24 h of incubation, Yes/No
Experimental: as §1

S. saprophyticus = assay: as above; format: cell-based, Staphylococcus saprophyticus; conditions: colonies counted after 24 h of incubation, Yes/No
Experimental: as §1

E. coli 1106 = assay: as above; format: cell-based, Escherichia coli; conditions: colonies counted after 24 h of incubation, Yes/No
Experimental: as §1

Escherichia coli 1106 = format: cell-based
Experimental: (§2) Strains of microorganisms capable of growing at such pH values were selected in advance: these were Pseudomonas aeruginosa and Escherichia coli 1106 (Gram-negative bacteria). The tests of antimicrobial activity were performed in liquid medium in microtitration plates (for the detailed protocol see example 2.4 as well as Hétru and Bulet, 1997). The pH of the liquid medium used was adjusted with hydrochloric acid for each test.
(§3) Two strains of Gram-negative bacteria (Pseudomonas aeruginosa and Escherichia coli 1106) capable of growing in the range of pH values to be tested were selected. The range of pH values tested corresponded to the pH variations observed in the well preserved stomach content of the incubating king penguin (Thouzeau et al., 2003).

Pseudomonas aeruginosa = format: cell-based
Experimental: as §2, §3

Aspergillus fumigatus = assay: Effect on growth of Aspergillus fumigatus, observation with electronic microscope; format: cell-based; conditions: incubation with 6 μM of spheniscin-2
From the text: (FIG. 9A) Control growth: the aspergillar heads terminated by the spores are clearly visible (X 400). […] The effect of spheniscin-2 on A. fumigatus is consequently not of the direct fungicidal type on the spores but is manifested by a halt of growth by inhibition of the reproduction of the fungus because there is no longer formation of aspergillar heads, structures implicated in the reproduction/proliferation process of this fungus.

SMILES: CC[C@H](C)[C@@H]1NC(=O)[C@@H]2CCCN2C(=O)[C@H]([C@@H](C)CC)NC(=O)[C@H](CO)NC(=O)[C@@H]2CCCN2C(=O)[C@H](Cc2ccccc2)NC(=O)[C@H](CCCNC(=N)N)NC(=O)[C@@H]2CSSC[C@@H](C(=O)N[C@@H](CCCNC(=N)N)C(=O)N[C@@H](CCCNC(=N)N)C(=O)N[C@H](C(=O)N[C@@H](Cc3c[nH]c4ccccc34)C(=O)O)C(C)C)NC(=O)[C@@H]3CSSC[C@H](NC(=O)[C@H](CC(C)C)NC(=O)CNC(=O)[C@H](Cc4ccccc4)NC(=O)[C@@H](N)CO)C(=O)N[C@@H](CCCNC(=N)N)C(=O)N[C@@H](CC(C)C)C(=O)N[C@@H](CCCNC(=N)N)C(=O)N[C@@H](CCCNC(=N)N)C(=O)NCC(=O)N[C@@H](Cc4ccccc4)C(=O)N[C@@H](CSSC[C@H](NC(=O)[C@H](CCCNC(=N)N)NC(=O)CNC1=O)C(=O)N[C@@H](CO)C(=O)N[C@@H](CCCNC(=N)N)C(=O)N[C@@H](Cc1ccccc1)C(=O)N[C@@H](C(C)C)C(=O)N[C@@H](CCC(N)=O)C(=O)N3)C(=O)N[C@@H](C)C(=O)N[C@@H](CCCNC(=N)N)C(=O)NCC(=O)N[C@@H](CCCNC(=N)N)C(=O)N2 [spheniscin-2] (HELM PEPTIDE1{S.F.G.L.C.R.L.R.R.G.F.C.A.R.G.R.C.R.F.P.S.I.P.I.G.R.C.S.R.F.V.Q.C.C.R.R.V.W}$PEPTIDE1,PEPTIDE1,5:R3-33:R3|PEPTIDE1,PEPTIDE1,12:R3-27:R3|PEPTIDE1,PEPTIDE1,17:R3-34:R3$$$V2.0; N-terminus and C-terminus assumed)
- Bactericidal effect of spheniscin-2 (B. megaterium): Yes
- Bactericidal effect of spheniscin-2 (Bacillus subtilis): Yes
- Bactericidal effect of spheniscin-2 (Escherichia coli SBS 363): No
- Bactericidal effect of spheniscin-2 (Klebsiella pneumoniae): No
- Bactericidal effect of spheniscin-2 (Micrococcus luteus): Yes
- Bactericidal effect of spheniscin-2 (Nocardia asteroides): Yes
- Bactericidal effect of spheniscin-2 [1]: No
- Bactericidal effect of spheniscin-2 (S. haemolyticus): Yes
- Bactericidal effect of spheniscin-2 (Salmonella typhimurium): No
- Bactericidal effect of spheniscin-2 (Staphylococcus aureus): Yes
- Bactericidal effect of spheniscin-2 [2]: No
- Bactericidal effect of spheniscin-2 [3]: Yes
- Bactericidal effect of spheniscin-2 (B. cereus ATCC 11778): Yes
- Bactericidal effect of spheniscin-2 (S. saprophyticus): No
- Bactericidal effect of spheniscin-2 (E. coli 1106): Yes
- MIC (μM) after 48 h of incubation (Escherichia coli 1106; pH 4.2): 6 to 12 µM
- MIC (μM) after 48 h of incubation (Escherichia coli 1106; pH 5.2): 25 to 50 µM
- MIC (μM) after 48 h of incubation (Escherichia coli 1106; pH 6.1): 6 to 12 µM
- MIC (μM) after 48 h of incubation (Escherichia coli 1106; pH 7.2): 1.5 to 3 µM
- MIC (μM) after 48 h of incubation (Pseudomonas aeruginosa; pH 4.2): >100 µM
- MIC (μM) after 48 h of incubation (Pseudomonas aeruginosa; pH 7.2): 6 to 12 µM
- Effect on the growth of Aspergillus fumigatus (FIG. 9B) (Aspergillus fumigatus): disappearance of the aspergillar heads
